Experimental data taken from ChEMBL document CHEMBL5726339, “Ether compounds for treatment of complement mediated disorders” (2017).

Biological target: Complement factor D (Homo sapiens, UniProt P00746)
Assay: Enzyme Assay: Human factor D (purified from human serum, Complement Technology, Inc.) at 80 nM final concentration is incubated with test compound at various concentrations for 5 minutes at room temperature in 50 mM Tris, 1M NaCl, pH 7.5. A synthetic substrate Z-L-Lys-SBzl and DTNB (Ellman's reagent) are added to final concentrations of 100 µM each. The increase in color is recorded at OD405 nm in a microplate in kinetic mode over 30 minutes with 30 second time points in a […]. IC50 values are calculated by non-linear regression from the percentage of inhibition of complement factor D activity as a function of test compound concentration.

Sequence of Complement factor D (P00746 whole entry): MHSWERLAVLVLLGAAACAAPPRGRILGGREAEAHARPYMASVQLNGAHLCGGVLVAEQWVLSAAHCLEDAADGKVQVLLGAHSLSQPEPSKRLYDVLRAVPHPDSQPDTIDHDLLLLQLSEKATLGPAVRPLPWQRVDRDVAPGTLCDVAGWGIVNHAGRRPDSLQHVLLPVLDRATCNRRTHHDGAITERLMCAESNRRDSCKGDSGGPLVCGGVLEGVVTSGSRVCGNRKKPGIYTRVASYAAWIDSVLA

Row | SMILES | IC50
1 | CC(=O)c1cn(CC(=O)N2C[C@H](F)C[C@H]2C(=O)Nc2cccc(Br)n2)c2ccc(Oc3ncc(Br)cn3)cc12 | < 1000 nM
2 | CC(=O)c1cn(CC(=O)N2[C@@H]3C[C@@H]3C[C@H]2C(=O)Nc2cccc(-c3ccccc3Cl)c2F)c2ccc(Oc3ncc(Br)cn3)cc12 | < 1000 nM
